Data taken from ChEMBL document CHEMBL4610060, “Orally bioavailable amine-linked macrocyclic inhibitors of factor XIa” (Bioorg Med Chem Lett, 2020).

Key:
[1] = Metabolic stability in rat liver microsomes assessed as half life; format: ADME, Microsome
[2] = Metabolic stability in human liver microsomes assessed as half life; format: ADME, Microsome
[3] = AUC in Sprague-Dawley rat at 1.04 mg/kg, po measured upto 24 hrs by LC-MS/MS analysis; format: ADME, organism-based; parameters: time < 24 hr, dose 1.04 mg/kg, route oral; settings: in vivo
[4] = Volume of distribution at steady state in Sprague-Dawley rat at 0.52 mg/kg, iv or 1.04 mg/kg, po measured upto 24 hrs by LC-MS/MS analysis; format: ADME, organism-based; settings: in vivo, read-out: Vdss
[5] = Permeability across basolateral to apical side in human Caco2 cells; format: ADME, cell-based; settings: Caco-2, read-out: permeability
[6] = Clearance in Sprague-Dawley rat at 0.52 mg/kg, iv or 1.04 mg/kg, po measured upto 24 hrs by LC-MS/MS analysis; format: ADME, organism-based; settings: in vivo
[7] = Permeability across apical to basolateral side in human Caco2 cells; format: ADME, cell-based; settings: Caco-2, read-out: permeability
[8] = Oral bioavailability in Sprague-Dawley rat at 1.04 mg/kg measured upto 24 hrs by LC-MS/MS analysis; format: ADME, organism-based; settings: in vivo
[9] = Half life in Sprague-Dawley rat at 0.52 mg/kg, iv or 1.04 mg/kg, po measured upto 24 hrs by LC-MS/MS analysis; format: ADME, organism-based; settings: in vivo
Plasma = assay: Anticoagulant activity in human plasma assessed as EC1.5 of activated partial thromboplastin time by coagulometric analysis; format: functional
Coagulation factor XI = Coagulation factor XI (Homo sapiens, UniProt P03951); assay: Inhibition of recombinant human activated coagulation factor XI using pyro-Glu-Pro-Arg-pNA as substrate by spectrophotometry
Coagulation factor XI, sequence (P03951 19-387 limits assumed): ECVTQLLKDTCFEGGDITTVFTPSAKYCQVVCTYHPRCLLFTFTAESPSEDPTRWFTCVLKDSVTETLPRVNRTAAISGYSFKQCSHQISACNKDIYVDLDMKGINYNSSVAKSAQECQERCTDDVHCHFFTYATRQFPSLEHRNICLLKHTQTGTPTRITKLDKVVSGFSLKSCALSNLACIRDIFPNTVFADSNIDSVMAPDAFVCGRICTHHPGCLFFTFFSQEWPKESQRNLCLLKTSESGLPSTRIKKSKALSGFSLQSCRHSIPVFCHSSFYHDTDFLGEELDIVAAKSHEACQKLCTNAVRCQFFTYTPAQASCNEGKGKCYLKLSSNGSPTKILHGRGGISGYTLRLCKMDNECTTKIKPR
Coagulation factor XI, sequence (P03951 388-625 limits assumed): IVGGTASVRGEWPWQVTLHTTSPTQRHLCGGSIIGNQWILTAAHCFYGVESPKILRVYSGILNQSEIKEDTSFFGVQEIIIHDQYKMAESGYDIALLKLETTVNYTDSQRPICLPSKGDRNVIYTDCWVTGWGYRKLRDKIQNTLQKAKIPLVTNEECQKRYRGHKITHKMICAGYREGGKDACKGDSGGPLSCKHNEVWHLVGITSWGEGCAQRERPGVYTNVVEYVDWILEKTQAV

half-life [1]: 1.45 h
half-life [2]: 1.85 h
AUC at 24 h [3]: 0.889 µM·h
Vd [4]: 0.53 L/kg
Papp B→A [5]: 21.3 ×10⁻⁶ cm/s
clearance [6]: 5.2 mL/min/kg
Papp A→B [7]: < 1.5 ×10⁻⁶ cm/s
bioavailability [8]: 23%
half-life [9]: 1.2 h
Ki (Coagulation factor XI): 3.4 nM
SMILES: COC(=O)Nc1ccc2c(c1)N[C@@H](C(=O)OC)CCCC[C@H](NC(=O)/C=C/c1cc(Cl)ccc1-n1cnnn1)c1cc-2ccn1
EC1.5 (Plasma): 3.4 µM
